Source: publication PMC13159116, “Affinity‐Based Interactome Mapping of Inositol Pyrophosphates Reveals 4/6‐PP‐InsP5‐Binding Proteins in Plants” (Advanced Science, 2026)

Target: T1, AtFHA2 (Arabidopsis thaliana, UniProt Q9SFV2)
T1 construct: gene FHA2; recombinant AtFHA2 (AT3G07220.1)
T1 sequence (Q9SFV2 2-320): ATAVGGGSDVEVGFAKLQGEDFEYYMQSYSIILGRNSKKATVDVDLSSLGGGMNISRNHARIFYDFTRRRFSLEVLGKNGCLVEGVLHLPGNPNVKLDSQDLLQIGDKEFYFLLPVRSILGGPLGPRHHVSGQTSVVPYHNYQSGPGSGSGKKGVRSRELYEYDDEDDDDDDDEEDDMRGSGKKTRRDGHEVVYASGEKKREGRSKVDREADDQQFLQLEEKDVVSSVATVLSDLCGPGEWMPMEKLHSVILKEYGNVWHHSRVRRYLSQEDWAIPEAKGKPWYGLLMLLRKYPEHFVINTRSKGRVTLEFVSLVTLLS
Experiment: isothermal titration calorimetry (ITC) with recombinant protein
Format: binding

SMILES	Kd
O=P(O)(O)O[C@H]1[C@H](OP(=O)(O)O)[C@@H](OP(=O)(O)O)[C@H](OP(=O)(O)OP(=O)(O)O)[C@@H](OP(=O)(O)O)[C@H]1OP(=O)(O)O [compound 4, 4-PP-InsP5]	4.9 ± 2.24 µM
O=P(O)(O)O[C@H]1[C@H](OP(=O)(O)O)[C@@H](OP(=O)(O)O)[C@H](OP(=O)(O)O)[C@@H](OP(=O)(O)O)[C@H]1OP(=O)(O)O [compound 6, InsP6]	> 100 µM
